The results in this text go back to ChEMBL document CHEMBL2396615 (Bioorg Med Chem Lett, 2013).

Each structure is given as a SMILES string. Some results are limits rather than exact numbers.

The first test deals with T1, Bifunctional epoxide hydrolase 2 (Homo sapiens, UniProt P34913).
T1 sequence (P34913 whole entry): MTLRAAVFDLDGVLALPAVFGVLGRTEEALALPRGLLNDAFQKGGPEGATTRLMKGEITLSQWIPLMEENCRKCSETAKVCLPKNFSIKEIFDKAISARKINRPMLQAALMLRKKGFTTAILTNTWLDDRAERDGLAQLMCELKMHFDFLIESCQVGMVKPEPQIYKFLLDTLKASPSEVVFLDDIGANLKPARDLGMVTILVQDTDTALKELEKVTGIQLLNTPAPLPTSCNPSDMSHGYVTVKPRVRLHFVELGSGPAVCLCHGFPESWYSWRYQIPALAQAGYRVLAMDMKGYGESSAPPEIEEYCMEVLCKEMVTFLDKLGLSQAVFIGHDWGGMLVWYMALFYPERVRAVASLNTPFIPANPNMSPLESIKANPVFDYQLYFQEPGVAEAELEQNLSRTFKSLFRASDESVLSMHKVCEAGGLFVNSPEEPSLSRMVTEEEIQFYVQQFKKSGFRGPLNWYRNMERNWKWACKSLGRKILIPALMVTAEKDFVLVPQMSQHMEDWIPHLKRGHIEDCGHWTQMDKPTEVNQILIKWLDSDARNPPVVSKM
Kind of test: Competitive inhibition of human recombinant soluble epoxide hydrolase using [3H]-tDPPO as substrate.
On to `C[C@]12CC[C@@H]3c4ccc(O)cc4C[C@@H](CCCCCCCCC[S+]([O-])CCCC(F)(F)C(F)(F)F)[C@H]3[C@@H]1CC[C@@H]2O` (stereo partly specified) [FULVESTRANT], for which the Ki (commonly a dissociation constant, usually derived from enzyme kinetics or from competition with a known ligand) was determined as 0.026 µM.

The target in the next test is T1, Bifunctional epoxide hydrolase 2. Kind of test: Inhibition of human recombinant soluble epoxide hydrolase using (cyano(6-methoxy-naphthelen-2-yl)methyl trans-[(3-phenyl-oxiran-2-yl)methyl] carbonate) as substrate preincubated for 5 mins prior to substrate addition by fluorescence assay.
Turning to `[O-][S+](Cc1ccccc1)Cc1ccccc1`, the IC50 (as a rule, the concentration that inhibits the measured activity by half) amounted to 70 µM.

On to `CCCCCCCCC(=O)CCCCCCCC`, for which the half-maximal inhibitory concentration (IC50) is greater than 100 µM.

As for `CCCCCCCCS(=O)(=O)CCCCCCCC`, the IC50 is greater than 100 µM.

With `CCCCCCCC[S+]([O-])Cc1ccccc1` (stereo unspecified), the half-inhibitory concentration (IC50) was 6.8 µM.

Consider `CCCCCCCC[S+]([O-])CCCCCCCC`, for which the IC50 was determined as 1.35 µM.

On to `O=C(Cc1ccccc1)Nc1ccccc1`, for which the IC50 was found to be 11 µM.

Consider `O=C(Nc1ccccc1)Nc1ccccc1`, for which the IC50 was 0.4 µM.

With `CCCCCCCCSCCCCCCCC` [DIOCTYLSULFANE], the half-inhibitory concentration (IC50) is greater than 100 µM.

For the compound `O=c1c2ccccc2[se]n1-c1ccccc1` [EBSELEN], the IC50 worked out at 2.2 µM.

Turning to `C[C@]12CC[C@@H]3c4ccc(O)cc4C[C@@H](CCCCCCCCC[S+]([O-])CCCC(F)(F)C(F)(F)F)[C@H]3[C@@H]1CC[C@@H]2O` (stereo partly specified) [FULVESTRANT], the IC50 was 0.006 µM.
